Data on 37 compounds can be found in patent publication US4798897A, “Isoquinoline derivatives” (Asahi Kasei Kogyo Kabushiki Kaisha, priority 1987, dated 1989).

Where two headings read alike, the source gives them in different places.

For one test, the system named is mesenteric artery. In words: Relaxation of mesenteric artery (KCl-contracted). The conditions noted are these: rabbit mesenteric artery contracted with 15 to 20 mM KCl, read-out: ED50 (concentration attaining 50% of complete relaxation). As for the experimental part:
1. Relaxation of Mesenteric Artery
A rabbit of Japanese local variety weighing about 3 kg was bled to death. Then, the abdomen of the rabbit was dissected to locate a mesenteric artery. […] Thus, shrinking and relaxation of the artery could be measured as a load on the transducer. To the organ bath, KCl was added so that the KCl concentration became 15 to 20 mM, causing the artery to shrink. Then, the compounds of the present invention were added to the organ bath to observe relaxation of the artery.
The effect of the compounds of the present invention on relaxation of mesenteric artery was examined according to the method as mentioned hereinbefore.

Another test has as its system bronchial tubes. The test is described as follows: Inhibition of histamine contraction of bronchial tubes (relaxation of bronchial tubes). The conditions noted are these: guinea pig bronchial tube, 10 μM histamine, Table 16, read-out: ED50 (50% decrease of histamine contraction of bronchial tubes). How it is done:
3. Inhibition of Histamine Contraction of Bronchial Tubes (Relaxation of Bronchial Tubes)
That is, a bronchial tube sample taken from a guinea pig was suspended in the 20-ml bath filled with Krebs-Henseleit nutrient solution and maintained at a temperature of 37° C. To the bath was added histamine so that the histamine concentration became 10 μM, causing the bronchial tube sample to contract. After the contraction became stable, the compounds of the present invention were added cumulatively to the bath to observe relaxation of the bronchial tube sample.
The effect of the compounds of the present invention on relaxation of bronchial tubes was examined according to the method as mentioned hereinbefore.

Turning to `CCCCCCN(CC(C)N)S(=O)(=O)c1cccc2cnccc12` (stereo not drawn) [Compound (11), N-(2-aminopropyl)-N-hexyl-5-isoquinolinesulfonamide], the figures for the EC50 with mesenteric artery (Oryctolagus cuniculus) and in the test on bronchial tubes (Cavia porcellus) were 3 µM and 9 µM, respectively. In the same order, the values of `O=S(=O)(c1cccc2cnccc12)N1CCCC(NCc2ccccc2)C1` (stereo not drawn) [Compound (69), 1-(5-isoquinolinesulfonyl)-3-benzylaminopiperidine] are 8 µM and 14 µM.

In the case of `O=S(=O)(c1cccc2cnccc12)N1CCCC(N2CCCCC2)C1` (stereo not drawn) [Compound (72), 1-(5-isoquinolinesulfonyl)-3-piperidinopiperidine], the values for the EC50 with mesenteric artery (Oryctolagus cuniculus) and in the test on bronchial tubes (Cavia porcellus) were 24 µM and 21 µM, respectively. In the same order, the values of `CN(C)C1CCCN(S(=O)(=O)c2cccc3c(Cl)nccc23)C1` (stereo not drawn) [Compound (99), 1-(1-chloro-5-isoquinolinesulfonyl)-3-dimethylaminopiperidine] are 21 µM and 19 µM. In the same order, the values of `CCCCCCN(C(C)CNC(C)C)S(=O)(=O)c1cccc2cnccc12` (stereo not drawn) [(39), N-hexyl-N-(2-isopropylamino-1-methylethyl)-5-isoquinolinesulfonamide] are 11 µM and 20 µM. As to “1-(1-chloro-5-isoquinolinesulfonyl)-3-(N-hexyl-N-methylamino)piperidine [Compound (100)]”, the EC50 in the test with mesenteric artery and in the test on bronchial tubes was 22 µM throughout.

For the compound `NC1CCN(S(=O)(=O)c2cccc3c(Cl)nccc23)C1` (stereo not drawn) [Compound (101), 1-(1-chloro-5-isoquinolinesulfonyl)-3-aminopyrrolidine], the figures for the EC50 in the test on mesenteric artery (Oryctolagus cuniculus) and in the test with bronchial tubes (Cavia porcellus) were 17 µM and 14 µM, respectively. Taken in the same sequence, the figures for `CCCCN(C(C)C(C)N)S(=O)(=O)c1cccc2cnccc12` (stereo not drawn) [Compound (16), N-(2-amino-1-methylpropyl)-N-butyl-5-isoquinolinesulfonamide] were 13 µM and 13 µM. Taken in the same sequence, the figures for `CN(CCN)S(=O)(=O)c1cccc2cnccc12` [Compound (1), N-(2-aminoethyl)-N-methyl-5-isoquinolinesulfonamide] were 5 µM and 8 µM.

Take `CCCCCCNC(C)CN(CCCCCC)S(=O)(=O)c1cccc2cnccc12` (stereo not drawn) [Compound (37), N-(2-hexylaminopropyl)-N-hexyl-5-isoquinolinesulfonamide]: the results for the EC50 with mesenteric artery (Oryctolagus cuniculus) and with bronchial tubes (Cavia porcellus) were 6 µM and 27 µM, respectively. In the same order, the values of `CCCCCCCCC(N)CN(CCC)S(=O)(=O)c1cccc2cnccc12` (stereo not drawn) [Compound (14), N-(2-aminodecyl)-N-propyl-5-isoquinolinesulfonamide] are 10 µM and 22 µM. With `CCCN(CCCCCCN)S(=O)(=O)c1cccc2cnccc12` [Compound (10), N-(6-aminohexyl)-N-propyl-5-isoquinolinesulfonamide], the EC50 in the test on mesenteric artery (Oryctolagus cuniculus) is 15 µM; in the test on bronchial tubes (Cavia porcellus), 16 µM. Consider `CCCCCCN(CC(N)CC)S(=O)(=O)c1cccc2cnccc12` (stereo not drawn) [Compound (12), N-(2-aminobutyl)-N-hexyl-5-isoquinolinesulfonamide], for which the EC50 was determined as 4 µM with mesenteric artery (Oryctolagus cuniculus) and 12 µM with bronchial tubes (Cavia porcellus).

Consider `CCCCCCNCCCN(CCCCCC)S(=O)(=O)c1cccc2cnccc12` [Compound (33), N-(3-hexylaminopropyl)-N-hexyl-5-isoquinolinesulfonamide], for which the EC50 was found to be 13 µM with mesenteric artery (Oryctolagus cuniculus) and 19 µM with bronchial tubes (Cavia porcellus). Taken in the same sequence, the figures for `O=S(=O)(c1cccc2c(O)nccc12)N1CCCC(Nc2ccccc2)C1` (stereo not drawn) [Compound (87), 1-(1-hydroxy-5-isoquinolinesulfonyl)-3-phenylaminopiperidine] were 20 µM and 15 µM. Take `NC1CCN(S(=O)(=O)c2cccc3cnccc23)C1` (stereo not drawn) [Compound (78), 1-(5-isoquinolinesulfonyl)-3-aminopyrrolidine]: the EC50 in the test with mesenteric artery (Oryctolagus cuniculus) was found to be 12 µM; with bronchial tubes (Cavia porcellus) it was 30 µM. `CNCCN(C)S(=O)(=O)c1cccc2cnccc12` [Compound (25), N-(2-methylaminoethyl)-N-methyl-5-isoquinolinesulfonamide]: the EC50 in the test with mesenteric artery (Oryctolagus cuniculus) and with bronchial tubes (Cavia porcellus) was 10 µM throughout. As for `CCCCCCN(CCC(C)CN)S(=O)(=O)c1cccc2cnccc12` (stereo not drawn) [Compound (23), N-(4-amino-3-methylbutyl)-N-hexyl-5-isoquinolinesulfonamide], the EC50 in the test on mesenteric artery (Oryctolagus cuniculus) and with bronchial tubes (Cavia porcellus) was 18 µM in each case.

On to `CCCCCCN(CCN1CCCCC1)S(=O)(=O)c1cccc2cnccc12` [Compound (45), N-hexyl-N-(2-piperidinoethyl)-5-isoquinolinesulfonamide], for which the values for the EC50 in the test with mesenteric artery (Oryctolagus cuniculus) and in the test on bronchial tubes (Cavia porcellus) were 23 µM and 17 µM, respectively. For `CCCCCCNC1CCCN(S(=O)(=O)c2cccc3c(O)nccc23)C1` (stereo not drawn) [Compound (88), 1-(1-hydroxy-5-isoquinolinesulfonyl)-3-hexylaminopiperidine], the EC50 with mesenteric artery (Oryctolagus cuniculus) was 12 µM; with bronchial tubes (Cavia porcellus) it was 9 µM. Taken in the same sequence, the figures for `CNC1CCN(S(=O)(=O)c2cccc3c(Cl)nccc23)C1` (stereo not drawn) [Compound (102), 1-(1-chloro-5-isoquinolinesulfonyl)-3-methylaminopyrrolidine] were 16 µM and 18 µM. For the compound `CCN(C(C)CN)S(=O)(=O)c1cccc2cnccc12` (stereo not drawn) [Compound (17), N-(2-amino-1-methylethyl)-N-ethyl-5-isoquinolinesulfonamide], the figures for the EC50 with mesenteric artery (Oryctolagus cuniculus) and with bronchial tubes (Cavia porcellus) were 14 µM and 10 µM, respectively.

Consider `CCCNC1CCN(S(=O)(=O)c2cccc3cnccc23)CC1` [Compound (54), 1-(5-isoquinolinesulfonyl)-4-propylaminopiperidine], for which the results for the EC50 in the test with mesenteric artery (Oryctolagus cuniculus) and in the test on bronchial tubes (Cavia porcellus) were 13 µM and 14 µM, respectively. In the same order, the values of `CCCCCCN(C)C1CCN(S(=O)(=O)c2cccc3cnccc23)CC1` [Compound (59), 1-(5-isoquinolinesulfonyl)-4-(N-hexyl-N-methylamino)piperidine] are 21 µM and 23 µM. In the same order, the values of `CCN(CC)CCN(C)S(=O)(=O)c1cccc2cnccc12` [Compound (42), N-(2-diethylaminoethyl)-N-methyl-5-isoquinolinesulfonamide] are 15 µM and 25 µM. Taken in the same sequence, the figures for `CN(C)C1CCCN(S(=O)(=O)c2cccc3cnccc23)C1` (stereo not drawn) [Compound (73), 1-(5-isoquinolinesulfonyl)-3-dimethylaminopiperidine] were 19 µM and 26 µM. With `CCCCCCN(C(C)CN(CC)CC)S(=O)(=O)c1cccc2cnccc12` (stereo not drawn) [Compound (49), N-(2-diethylamino-1-methylethyl)-N-hexyl-5-isoquinolinesulfonamide], the EC50 in the test with bronchial tubes (Cavia porcellus) came to 15 µM. Regarding `CCCCCCN(CCCCN)S(=O)(=O)c1cccc2cnccc12` [Compound (8), N-(4-aminobutyl)-N-hexyl-5-isoquinolinesulfonamide], the EC50 in the test with mesenteric artery (Oryctolagus cuniculus) turned out to be 5 µM; in the test on bronchial tubes (Cavia porcellus), 11 µM. Taken in the same sequence, the figures for `O=S(=O)(c1cccc2c(O)nccc12)N1CCC(NCc2ccccc2)CC1` [Compound (83), 1-(1-hydroxy-5-isoquinolinesulfonyl)-4-benzylaminopiperidine] were 18 µM and 19 µM. In the same order, the values of `CCCNC1CCCN(S(=O)(=O)c2cccc3c(O)nccc23)C1` (stereo not drawn) [Compound (85), 1-(1-hydroxy-5-isoquinolinesulfonyl)-3-propylaminopiperidine] are 13 µM and 11 µM.

As for `CCCCCCN(CCN(C)C)S(=O)(=O)c1cccc2cnccc12` [Compound (43), N-(2-dimethylaminoethyl)-N-hexyl-5-isoquinolinesulfonamide], the results for the EC50 in the test on mesenteric artery (Oryctolagus cuniculus) and in the test on bronchial tubes (Cavia porcellus) were 20 µM and 27 µM, respectively. In the same order, the values of `O=S(=O)(c1cccc2c(O)nccc12)N1CCC(Nc2ccccc2)CC1` [Compound (82), 1-(1-hydroxy-5-isoquinolinesulfonyl)-4-phenylaminopiperidine] are 21 µM and 21 µM. Taken in the same sequence, the figures for `CCCCCCC(CN(CCCC)S(=O)(=O)c1cccc2cnccc12)NCCC` (stereo not drawn) [Compound (38), N-(2-propylaminoocytyl)-N-butyl-5-isoquinolinesulfonamide] were 8 µM and 23 µM. In the same order, the values of `CCN(CCN(C)C1CCCCC1)S(=O)(=O)c1cccc2cnccc12` [Compound (47), N-[2-(N-cyclohexyl-N-methylamino)ethyl]-N-ethyl-5-isoquinolinesulfonamide] are 22 µM and 19 µM.

With `CNC1CCN(S(=O)(=O)c2cccc3cnccc23)CC1` [Compound (52), 1-(5-isoquinolinesulfonyl)-4-methylaminopiperidine], the results for the EC50 in the test with mesenteric artery (Oryctolagus cuniculus) and in the test on bronchial tubes (Cavia porcellus) were 14 µM and 12 µM, respectively. In the same order, the values of `CNC1CCCN(S(=O)(=O)c2cccc3cnccc23)C1` (stereo not drawn) [Compound (64), 1-(5-isoquinolinesulfonyl)-3-methylaminopiperidine] are 6 µM and 6 µM. For the compound `O=S(=O)(c1cccc2cnccc12)N1CCCC(Nc2ccccc2)C1` (stereo not drawn) [Compound (68), 1-(5-isoquinolinesulfonyl)-3-phenylaminopiperidine], the EC50 with mesenteric artery (Oryctolagus cuniculus) was found to be 16 µM.
